How the values were obtained:
[1] = molecular target: FLAG-tagged Vanin-1 (AA 22-493, T26I) (Homo sapiens (Human), UniProt O95497, T26I); test: Vanin-1 enzymatic assay; type: biochemical; conditions: formation of pantothenic acid from D-pantethine (3 μM), RapidFire MS; geometric mean in case of multiple measurements; read-out: VNN 1 IC50
Method: The test compounds are dissolved in 100% DMSO at a concentration of 10 mM and in a first step diluted in DMSO to a concentration of 5 mM, followed by serial dilution steps in 100% DMSO. Dilution factor and number of dilution steps may vary according to needs. Typically 8 different concentrations by 1:5 dilutions are prepared, a further intermediate dilutions of the substances is carried out with assay buffer resulting in 1% final DMSO concentration in the assay.
0.1 nM of FLAG-tagged Vanin-1 (AA 22-493, T26I, produced internally) and test compounds are incubated at room temperature for 20 minutes in assay buffer (1 mM DTT, 0.0025% Brij-35, 50 mM HEPES, pH7.5). D-Pantethine (Sigma, Cat #P2125-5G) in assay buffer is added (final concentration 3 μM) and incubated for additional 30 minutes at room temperature. Total assay volume typically is 40 μl but might be adjusted according to needs. Reaction is stopped by adding equal volume of stop solution as the reaction mixture to reach 100 nM HD-pantothenic acid (as an internal standard) and 1% TFA. Assay plates are centrifuged for 2 minutes and the formation of pantothenic acid is detected by RapidFire Mass Spectrometry (mobile phase A: 0.1% formic acid and 0.01% trifluoroacetic acid in water; mobile phase B: 47.5% acetonitrile, 47.5% methanol, 0.1% formic acid and 0.01% trifluoroacetic acid in water) using a C18, 12 μL cartridge (Agilent Cat #G9205A).
The values given in Table I result from measurements of one or more samples. In case of multiple measurements the geometric mean values are given.

[2] = system: Pantetheinase (vanin); test: Human Whole Blood assay; type: cell-based; conditions: formation of pantothenic acid after pantethine supplementation, RapidFire MS, read-out: HWB IC50
Method: Human Whole Blood assay: Pantetheinase (vanin) converts panteheine into pantothenic acid and cysteamine. Accordingly, in the described protocol vanin activity is quantified by formation of pantothenic acid after pantetheine supplementation via pantethine. The assay is applicable to identify vanin inhibitors. Compound stocks were dissolved in DMSO at 10 mM. Further dilutions were performed in RPMI 1640 medium (Gibco, #A-10491-01) and final concentrations in the assay were 0.032 nM-500 nM.
Human blood was drawn into a blood bag (1% heparin, 50 I.E./mL). Blood was aliquoted into cavities of 96-deep-well plates at 290 μL and mixed with 10 μL compound solution or vehicle (30 sec at 1400 rpm on a shaker). Equilibration followed at room temperature, 250 rpm and for 30 min. The assay was started by adding 10 μL of substrate solution (20 μM pantethine in 1 mM DTT, 0.0025% Brij-35, 50 mM HEPES, pH7.5) to each well, except for some blank wells which received […] substrate buffer (1 mM DTT, 0.0025% Brij-35, 50 mM HEPES, pH7.5) only. Samples were thoroughly shaken (30 sec, 1400 rpm) and reaction was allowed to take place at room temperature, 250 rpm and for 5 min. The reaction was stopped by addition of a vanin tool inhibitor in excess (BI-1 total conc. 10 μM). Centrifugation of the plate followed at 4° C., 665 G for 10 min. Then the blood plasma samples (100 μL) were transferred into another 96-deep-well plate and proteins were precipitated (5 min on ice) by adding 100 μL of ice cold precipitation solution (1 μM labelled pantothenic acid (di-β-alanine-13C6,15N2 calcium salt, Sigma, #705837) in acetonitrile). Afterwards the plate was centrifuged (4° C., 3220 G, 10 min) and supernatants (50 μL) were collected into another 96-deep-well plate and mixed (10 sec, 1400 rpm) with 150 μL ice cold formic acid (0.1%, Carl Roth GmbH+Co.KG, #CP03.1). The formation of pantothenic acid is detected by RapidFire Mass Spectrometry. A TripleQuad 6500+ (ABSciex, Germany) was equipped with an LC-1290 system, a RapidFire autosampler (Agilent, Germany) and a C18 cartridge Type C 12 μL (Agilent Cat #G9526-80000). Mobile phase A was consisting of 0.09% formic acid and 0.01% trifluoroacetic acid in water and mobile phase B of 0.09% formic acid and 0.01% trifluoroacetic acid in acetonitrile/methanol/water=47.5/47.5/5.

FLAG-tagged Vanin-1 (AA 22-493, T26I), sequence (O95497 22-493 T26I): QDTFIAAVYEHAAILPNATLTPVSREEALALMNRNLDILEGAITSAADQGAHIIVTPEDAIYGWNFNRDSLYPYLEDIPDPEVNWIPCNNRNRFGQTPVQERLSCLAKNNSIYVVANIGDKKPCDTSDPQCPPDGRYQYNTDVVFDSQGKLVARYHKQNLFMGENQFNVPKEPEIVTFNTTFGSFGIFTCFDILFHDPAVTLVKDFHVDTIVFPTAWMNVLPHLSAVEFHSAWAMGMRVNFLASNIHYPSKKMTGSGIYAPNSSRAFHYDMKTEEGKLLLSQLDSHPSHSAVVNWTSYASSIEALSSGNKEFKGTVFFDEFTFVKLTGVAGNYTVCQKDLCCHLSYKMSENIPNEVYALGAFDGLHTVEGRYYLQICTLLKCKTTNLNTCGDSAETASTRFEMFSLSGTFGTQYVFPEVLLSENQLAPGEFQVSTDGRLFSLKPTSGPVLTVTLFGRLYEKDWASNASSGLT

| Structure (SMILES) | IC50 [1] | IC50 [2] |
| --- | --- | --- |
| C[C@]1(c2ccc(F)cc2)Cc2cc(C(=O)N3CC[C@H](N4CCCC4=O)C3)cnc2N1 [Example 5.3] | 0.1 nM | 1.5 nM |
| CC(=O)N(C)[C@H]1CCN(C(=O)c2cnc3c(c2)CCC(C)(C)N3)C1 [Example 11.6] | 0.5 nM | 12.6 nM |
| C[C@]1(c2cccc(Cl)c2)Cc2cc(C(=O)N3CC[C@H](N4CCCC4=O)C3)cnc2N1 [Example 7.1, (3′S)-1′-[2-(3-Chlorophenyl)-2-methyl-1H,2H,3H-pyrrolo[2,3-b]pyridine-5-carbonyl]-[1,3′-bipyrrolidine]-2-one] | 0.1 nM | – |
| CN(C(=O)C1CC1)[C@H]1CCN(C(=O)c2cnc3c(c2)CC[C@](C)(c2cncnc2)N3)C1 [Example 13.3] | 0.3 nM | – |
| CN(C(=O)C1(C#N)CC1)[C@H]1CCN(C(=O)c2cnc3c(c2)CC(C)(C)N3)C1 [Example 2.2] | 1.1 nM | 9.5 nM |
| CN(C(=O)C1(C#N)CC1)[C@H]1CCN(C(=O)c2cnc3c(c2)CCC(C)(C)N3)C1 [Example 11.7] | 4.9 nM | – |
| CC1(C)CCc2cc(C(=O)N3CC[C@H](N4CCCC4=O)C3)cnc2N1 [Example 11.8] | 0.7 nM | 5.2 nM |
| CN(C(=O)C1CCC1)[C@H]1CCN(C(=O)c2cnc3c(c2)CCC(C)(C)N3)C1 [Example 11.10] | 0.6 nM | 10.6 nM |
| CC1(C)CCc2cc(C(=O)N3CCC4(CCOCC4)C3)cnc2N1 [Example 11.1, 2-(7,7-Dimethyl-5,6,7,8-tetrahydro-1,8-naphthyridine-3-carbonyl)-8-oxa-2-azaspiro[4.5]decane] | 1.7 nM | – |
| C[C@]1(c2cccc(F)c2)Cc2cc(C(=O)N3CC[C@H](N4CCCC4=O)C3)cnc2N1 [Example 4.4] | 0.1 nM | 2.1 nM |
| C[C@]1(c2ccc(F)cc2)Cc2cc(C(=O)N3CC4(CCOCC4)C3)cnc2N1 [Example 5.6] | 0.6 nM | 10.3 nM |
| CN(C(=O)C1CC1)[C@H]1CCN(C(=O)c2cnc3c(c2)CCCC(C)(C)N3)C1 [Example 12.6] | 2.7 nM | – |
| CN(C(=O)C1CCC1)[C@H]1CCN(C(=O)c2cnc3c(c2)CC[C@](C)(c2cncnc2)N3)C1 [Example 13.1, N-methyl-N-[(3S)-1-[(7R)-7-Methyl-7-(pyrimidin-5-yl)-5,6,7,8-tetrahydro-1,8-naphthyridine-3-carbonyl]pyrrolidin-3-yl]cyclobutanecarboxamide] | 0.2 nM | – |
| CC(=O)N(C)[C@H]1CCN(C(=O)c2cnc3c(c2)C[C@](C)(c2cccc(F)c2)N3)C1 [Example 4.3] | 0.1 nM | 1.4 nM |
| CC(=O)N(C)[C@H]1CCN(C(=O)c2cnc3c(c2)C[C@@](C)(c2ccc(Cl)cc2)N3)C1 [Example 9.2, N-[(3S)-1-[(2S)-2-(4-Chlorophenyl)-2-methyl-1H,2H,3H-pyrrolo[2,3-b]pyridine-5-carbonyl]pyrrolidin-3-yl]-N-methylacetamide] | 1.4 nM | – |
| CN(C(=O)C1CC1)[C@H]1CCN(C(=O)c2cnc3c(c2)CCC(C)(C)N3)C1 [Example 11.9] | 0.7 nM | 3.5 nM |
| CN(C(=O)C1(C)CCC1)[C@H]1CCN(C(=O)c2cnc3c(c2)CC(C)(C)N3)C1 [Example 2.3] | 4.6 nM | – |
| CN(c1ncccn1)[C@H]1CCN(C(=O)c2cnc3c(c2)C[C@](C)(c2ccc(F)cc2)N3)C1 [Example 5.5] | 0.2 nM | 17.2 nM |
| CC1(C)CCc2cc(C(=O)N3CC4(CCOCC4)C3)cnc2N1 [Example 11.2] | 0.3 nM | 4.5 nM |
| CC(=O)N(C)[C@H]1CCN(C(=O)c2cnc3c(c2)C[C@](C)(c2ccccc2)N3)C1 [Example 9.3] | 0.2 nM | 2.1 nM |
| CC(=O)N(C)[C@H]1CCN(C(=O)c2cnc3c(c2)CCC(C)(c2ccccc2)N3)C1 (stereo partly drawn) [Example 12.2] | 0.3 nM | 8.2 nM |

| Structure (SMILES) | IC50 [1] | IC50 [2] |
| --- | --- | --- |
| CC1(C)Cc2cc(C(=O)N3CC4(CCOCC4)C3)cnc2N1 [Example 1.5] | 10.4 nM | – |
| CC1(C)Cc2cc(C(=O)N3CC[C@H](N4CCOC4=O)C3)cnc2N1 [Example 1.3] | 1.6 nM | – |
| C[C@]1(c2cccc(Cl)c2)Cc2cc(C(=O)N3CC[C@H](N4CCOC4=O)C3)cnc2N1 [Example 7.4] | 0.1 nM | 1.9 nM |
| CN(C(=O)C1CC1)[C@H]1CCN(C(=O)c2cnc3c(c2)CC(C)(C)N3)C1 [Example 2.5] | 2.1 nM | – |
| CC(=O)N(C)[C@H]1CCN(C(=O)c2cnc3c(c2)CCCCN3)C1 [Example 12.3] | 0.4 nM | – |
| CC(=O)N(C)[C@H]1CCN(C(=O)c2cnc3c(c2)C[C@@](C)(c2cccc(Cl)c2)N3)C1 [Example 7.3] | 18.9 nM | 424 nM |
| C[C@]1(c2cccc(F)c2)Cc2cc(C(=O)N3CC[C@H](N4CCOC4=O)C3)cnc2N1 [Example 4.1, 3-[(3S)-1-[(2R)-2-(3-Fluorophenyl)-2-methyl-1H,2H,3H-pyrrolo[2,3-b]pyridine-5-carbonyl]pyrrolidin-3-yl]-1,3-oxazolidin-2-one] | 0.1 nM | 1.4 nM |
| CC(=O)N(C)[C@H]1CCN(C(=O)c2cnc3c(c2)CC(C)(C)N3)C1 [Example 1.1, N-[(3S)-1-{2,2-Dimethyl-1H,2H,3H-pyrrolo[2,3-b]pyridine-5-carbonyl}pyrrolidin-3-yl]-N-methylacetamide] | 2.5 nM | – |
| CC(=O)N(C)[C@H]1CCN(C(=O)c2cnc3c(c2)C[C@@](C)(c2ccc(F)cc2)N3)C1 [Example 5.4] | 87.1 nM | – |
| CN(C(=O)C1CC1)[C@H]1CCN(C(=O)c2cnc3c(c2)CC[C@@](C)(c2cncnc2)N3)C1 [Example 13.4] | 11.5 nM | – |
| CC(=O)N(C)[C@H]1CCN(C(=O)c2cnc3c(c2)C[C@@](C)(c2cccc(F)c2)N3)C1 [Example 4.2] | 1.7 nM | – |
| CC(=O)N(C)[C@H]1CCN(C(=O)c2cnc3c(c2)CCC(c2ccccc2)N3)C1 (stereo partly drawn) [Example 12.1, N-Methyl-N-[(3S)-1-(7-phenyl-5,6,7,8-tetrahydro-1,8-naphthyridine-3-carbonyl)pyrrolidin-3-yl]acetamide] | 20.3 nM | – |
| CC1(C)Cc2cc(C(=O)N3CCC4(CCOCC4)C3)cnc2N1 [Example 1.4] | 4.9 nM | – |
| CC(=O)N(C)[C@H]1CCN(C(=O)c2cnc3c(c2)CCCC(C)(C)N3)C1 [Example 12.4] | 2.5 nM | – |
| CC1(C)CCc2cc(C(=O)N3CC[C@H](N4CCOC4=O)C3)cnc2N1 [Example 11.5] | 4.3 nM | – |
| CC(=O)N(C)[C@H]1CCN(C(=O)c2cnc3c(c2)C[C@](C)(c2ccc(C#N)cc2)N3)C1 [Example 10, N-[(3S)-1-[(2R)-2-(4-Cyanophenyl)-2-methyl-1H,2H,3H-pyrrolo[2,3-b]pyridine-5-carbonyl]pyrrolidin-3-yl]-N-methylacetamide] | 0.2 nM | – |
| CC1(C)CCCc2cc(C(=O)N3CC[C@H](N4CCCC4=O)C3)cnc2N1 [Example 12.5] | 1.5 nM | – |
| CC(=O)N(C)[C@H]1CCN(C(=O)c2cnc3c(c2)C[C@@](C)(c2ccccc2)N3)C1 [Example 9.4] | 25.9 nM | – |
| CN(C(=O)C1CCC1)[C@H]1CCN(C(=O)c2cnc3c(c2)CC[C@@](C)(c2cncnc2)N3)C1 [Example 13.2, N-methyl-N-[(3S)-1-[(7S)-7-Methyl-7-(pyrimidin-5-yl)-5,6,7,8-tetrahydro-1,8-naphthyridine-3-carbonyl]pyrrolidin-3-yl]cyclobutanecarboxamide] | 23.5 nM | – |
| CC1(C)CCCc2cc(C(=O)N3CC[C@H](N4CCOC4=O)C3)cnc2N1 [Example 12.7] | 1.4 nM | – |

Reference: patent US10864201B2, “Heteroaromatic compounds as Vanin inhibitors” (Boehringer Ingelheim International GmbH, priority 2018, dated 2020)
